We go through nine molecules from PubChem BioAssay AID977629 (Broad Institute, 2014).

Records with an inconclusive call do not appear. Activity calls are given as the source filed them.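 How the source made its calls: active means drop in red signal of normal-ribosome bacteria at least twice that in human-like-ribosome bacteria, growth inhibited under 30%; inactive means the rest, inconclusive results apart.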 Some results are limits rather than exact numbers.

The subject of assay [1] is E. coli WT-RFP / h24-humanized GFP mixed culture, 24 h. The experiment in a line: E. coli strain growth, wild-type against h24 humanized mutant – h24 mutant GFP vs wild-type RFP, cherry-pick, dose response (AID 977629).
Assay in assay [2]: as above
To be noted: E. coli WT-RFP / h24-humanized GFP mixed culture, 24 h; at 50 µM (top of the series).

[3] abbreviates: measured here: h24 humanized mutant GFP signal.
[4] abbreviates: measured here: total growth OD600.

In general, AC50 refers to the concentration at which the activity in the assay is half-maximal. As to `O=C(O)c1cc([N+](=O)[O-])ccc1NCc1ccccc1`, the concentration at half-maximal activity (AC50) in assay [1] (setting [3]) is over 100 µM; in assay [1] (setting [4]) it was 5.79 µM. The activity change, negative = inhibition in assay [2] was -0.454 (inactive).

Consider `Cc1ccc(C)c(NC(=O)CSc2nc3nc(-c4cccs4)cc(C(F)(F)F)c3c(=O)[nH]2)c1`, for which the AC50 worked out at 31.6 µM in assay [1] (setting [3]) and 20.1 µM in assay [1] (setting [4]). Besides, the activity change, negative = inhibition in assay [2] is 52.6 (inactive).

For the molecule `COC(=O)c1c(NC(=O)CCC(=O)O)sc(Cc2ccccc2)c1C`, the results for the AC50 in assay [1] and in assay [1] (setting [4]) were > 100 µM (inactive) and 30 µM, respectively.

In the case of `C[C@@H]1CCCCO[C@H](CN(C)C(=O)CCCN(C)C)[C@H](C)CN([C@@H](C)CO)C(=O)c2cc(NC(=O)Nc3cccc4ccccc34)ccc2O1`, the AC50 in assay [1] (setting [4]) was over 100 µM. The activity change, negative = inhibition in assay [2] was 101 (inactive).

In assay [1] (setting [4]), `COc1ccc(-n2cc(-c3ccccc3)c3c(N4CCOCC4)ncnc32)cc1` displayed a half-maximal activity concentration (AC50) of 27.8 µM. The activity change, negative = inhibition in assay [2] was 12.7 (inactive).

With `CCN(CC)CCn1c2ccccc2c2nc3ccc([N+](=O)[O-])cc3cc21`, the AC50 stood at 6.47 µM in assay [1] (setting [3]) and 7.41 µM in assay [1] (setting [4]). The activity change, negative = inhibition in assay [2] was 21.8 (inactive).

Regarding `COc1ccc2[nH]c3c(=O)n(CCCCC(=O)NCCC(C)C)c(=S)[nH]c3c2c1`, the activity change, negative = inhibition in assay [2] is 64.3 (inactive).

As to `Cc1noc(C)c1NC(=O)Nc1ccc2c(c1)C(=O)N([C@H](C)CO)C[C@@H](C)[C@@H](CN(C)C(=O)Nc1ccc3c(c1)OCO3)OCCCC[C@@H](C)O2`, the activity change, negative = inhibition in assay [2] is 86.8 (inactive).

As to `COc1ccc(Cn2c(-c3ccc(Cl)cc3)c[n+]3ccccc23)cc1`, in assay [2], the activity change, negative = inhibition was 21 (inactive).
